Reference: paper PMC9239059, “Structure-Guided Synthesis of FK506 and FK520 Analogs with Increased Selectivity Exhibit In Vivo Therapeutic Efficacy against Cryptococcus” (mBio, 2022)
Values after ≈ are worked out from the molar mass of the structure shown.

Columns and labels:
[1] = molecular target: T1, FKBP12 (Candida albicans, UniProt C4YFI3+C4YS24+P28870); assay: BLI, compound-mediated ternary complex formation, […] compound; type: binding
T1 construct: gene RBP1; biotinylated (Avi-tagged) FKBP12; with CnA-CnB-calmodulin
T1 sequence (P28870 whole entry): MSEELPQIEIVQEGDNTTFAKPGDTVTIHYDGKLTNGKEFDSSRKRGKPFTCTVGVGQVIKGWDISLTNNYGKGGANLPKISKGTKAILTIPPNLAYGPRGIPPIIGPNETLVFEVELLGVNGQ
T1 sequence (C4YFI3 54-445): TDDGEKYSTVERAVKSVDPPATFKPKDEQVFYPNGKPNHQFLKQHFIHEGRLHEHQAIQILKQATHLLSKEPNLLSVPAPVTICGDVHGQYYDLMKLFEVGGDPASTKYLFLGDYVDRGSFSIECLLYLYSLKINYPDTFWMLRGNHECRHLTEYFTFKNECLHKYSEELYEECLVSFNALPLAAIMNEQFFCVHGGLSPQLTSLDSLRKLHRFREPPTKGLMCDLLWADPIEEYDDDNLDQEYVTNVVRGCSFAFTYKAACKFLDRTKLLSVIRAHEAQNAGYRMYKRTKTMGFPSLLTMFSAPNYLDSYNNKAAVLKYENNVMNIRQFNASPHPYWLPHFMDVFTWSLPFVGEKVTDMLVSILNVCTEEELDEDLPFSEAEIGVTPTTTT
T1 sequence (C4YS24 1-173): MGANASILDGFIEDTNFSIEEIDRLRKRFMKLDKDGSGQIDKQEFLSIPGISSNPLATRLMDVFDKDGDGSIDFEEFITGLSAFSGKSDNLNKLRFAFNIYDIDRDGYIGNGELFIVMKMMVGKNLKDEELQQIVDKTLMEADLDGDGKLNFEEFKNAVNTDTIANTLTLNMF
T1 sequence (P23286 whole entry partner): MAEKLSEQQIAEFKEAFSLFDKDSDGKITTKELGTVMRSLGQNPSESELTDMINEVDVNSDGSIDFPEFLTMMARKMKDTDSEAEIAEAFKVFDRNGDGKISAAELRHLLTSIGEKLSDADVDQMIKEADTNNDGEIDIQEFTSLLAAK

[2] = system: T2, Cryptococcus neoformans (H99); assay: microbe, parasite or virus in culture; parameters: CLSI M27-A3 broth microdilution in RPMI 1640 at 37 C, growth inhibition of C. neoformans (MIC)
T2 construct: H99
Method: In vitro antifungal activities of FK506, FK520, and analogs were assessed in RPMI 1640 (Sigma-Aldrich) for all strains tested. MICs/minimum effective concentrations (MECs) for each drug were measured using modified Clinical and Laboratory Standards Institute (CLSI) M38-A2 and M27-A3 standard in vitro antifungal susceptibility protocols. Broth microdilution assays for MIC/MEC assessment were performed as described previously ([33]). All antifungal assays with C. neoformans were performed at 37°C. Antifungal susceptibility testing for C. albicans was performed in the presence of a uniform 1 μg/mL concentration of fluconazole to sensitize the organism to calcineurin inhibition. MICs/minimum effective concentrations (MECs) were determined for each of the novel analogs against the three major human fungal pathogens, A. fumigatus, C. neoformans, and C. albicans. […] Thus, analogs of FK506 and FK520 can tolerate up to 100-fold reduction in antifungal activity and still be considered for in vivo testing. For C. neoformans, MICs were the most uniform and ranged from 0.2 to 2 μg/mL, which is between 4- and 40-fold reduced for antifungal activity. C. albicans MICs ranged from 0.2 to 6.25 μg/mL, which is between 10- and 312.5-fold reduced for activity. Despite being one of the most difficult to treat fungal infections, all six analogs were active against A. fumigatus with MECs ranging from 1 to 2 μg/mL or a 62.5- to 125-fold reduction in activity.

## CC[C@@H]1/C=C(\C)C[C@H](C)C[C@H](OC)[C@H]2O[C@@](O)(C(=O)C(=O)N3CCCC[C@H]3C(=O)O[C@H](/C(C)=C/[C@@H]3CC[C@@H](O)[C@H](OC)C3)[C@H](C)[C@@H](O)CC1=O)[C@H](C)C[C@@H]2OC [FK520]
[1]
  BLI, compound-mediated ternary complex formation, 10 μM compound: along with compounds FK506, APX879, FK520, JH-FK-02, and JH-FK-05
[2]; inhibitor
  MIC (μg/mL) against: / Cryptococcus neoformans (H99)^a: 0.05 µg/mL (≈ 0.0631 µM)

## C=CC[C@@H]1/C=C(\C)C[C@H](C)C[C@H](OC)[C@H]2O[C@@](O)(C(=O)C(=O)N3CCCC[C@H]3C(=O)O[C@H](/C(C)=C/[C@@H]3CC[C@@H](O)[C@H](OC)C3)[C@H](C)[C@@H](O)CC1=O)[C@H](C)C[C@@H]2OC [FK506]
[1]
  BLI, compound-mediated ternary complex formation, 10 μM compound: along with compounds FK506, APX879, FK520, JH-FK-02, and JH-FK-05
[2]; Cryptococcus neoformans, read-out: MIC (μg/mL) against: / Cryptococcus neoformans (H99)^a
  MIC: 0.05 µg/mL (≈ 0.0622 µM)
